Read-outs that look alike come from different tables or passages of the source.
Tested on: recombinant NL4-3 virus (Renilla luciferase) in MT-2 cells
Experiment: HIV cell culture assay (antiviral activity, luciferase readout in infected MT-2 cells)
Type: cell-based
Details: Renilla
In short: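 Nef-deleted NL4-3 carrying Renilla luciferase, produced by 293T transfection, used to infect MT-2 cells for 4–5 days with serial compound dilutions. Live-cell luciferase signal read as infection marker; EC50 from exponential median-effect equation.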

[1] = NL43, read-out: Activity, antiviral activity class, recombinant NL4-3 Renilla luciferase virus in MT-2 cells
[2] = NL43, recombinant NL4-3 Renilla luciferase virus in MT-2 cells

| SMILES | EC50 [1] | EC50 [2] |
| --- | --- | --- |
| Cc1ccccc1S(=O)(=O)NC(=O)N[C@@H](Cc1ccc(F)c(F)c1)C(=O)N(C)c1ccc2c(c1)OCO2 [Example 60, (S)—N-(benzo[d][1,3]dioxol-5-yl)-3-(3,4-difluorophenyl)-N-methyl-2-(3-(o-tolylsulfonyl)ureido)propanamide] | 0.1 to 1 µM | 0.23 µM |
| CN(C(=O)[C@H](Cc1ccccc1)NC(=O)NS(=O)(=O)C1(Cc2ccccc2)CC1)c1ccc2c(c1)OCO2 [Example 107, (S)—N-(benzo[d][1,3]dioxol-5-yl)-2-(3-((1-benzylcyclopropyl)sulfonyl)ureido)-N-methyl-3-phenylpropanamide] | 1 to 10 µM |  |
| CN(C(=O)[C@H](Cc1ccccc1)NC(=O)NS(=O)(=O)c1cccc(Cl)c1)c1ccc2c(c1)OCO2 [Example 3, (S)—N-(benzo[d][1,3]dioxol-5-yl)-2-(3-((3-chlorophenyl)sulfonyl)ureido)-N-methyl-3-phenylpropanamide] | 0.1 to 1 µM |  |
| COc1ccc(N(C)C(=O)[C@H](Cc2cccnc2)NC(=O)NS(=O)(=O)c2ccccc2C)cc1 [Example 194, (S)—N-(4-methoxyphenyl)-N-methyl-3-(pyridin-3-yl)-2-(3-(o-tolylsulfonyl)ureido)propanamide] | 10 to 100 µM |  |
| Cc1ccccc1S(=O)(=O)NC(=O)N[C@@H](Cc1cccc(C(N)=O)c1)C(=O)N(C)c1ccc2c(c1)OCO2 [Example 80, (S)-3-(3-(benzo[d][1,3]dioxol-5-yl(methyl)amino)-3-oxo-2-(3-(o-tolylsulfonyl)ureido)propyl)benzamide] |  | > 100 µM |
| Cc1ccc(F)cc1S(=O)(=O)NC(=O)N[C@@H](Cc1ccccc1)C(=O)N(C)c1ccc2c(c1)OCO2 [Example 16, (S)—N-(benzo[d][1,3]dioxol-5-yl)-2-(3-((5-fluoro-2-methylphenyl)sulfonyl)ureido)-N-methyl-3-phenylpropanamide] | < 0.1 µM |  |
| CCN(C(=O)[C@H](Cc1ccccc1)NC(=O)NS(=O)(=O)c1ccccc1C)c1ccc(Cl)cc1 [Example 181, (S)—N-(4-chlorophenyl)-N-ethyl-3-phenyl-2-(3-(o-tolylsulfonyl)ureido)propanamide] | 0.1 to 1 µM |  |
| Cc1ccccc1S(=O)(=O)NC(=O)N[C@@H](Cc1ccccc1)C(=O)N1CCCc2cc(O)ccc21 [Example 173, (S)—N-((1-(6-hydroxy-3,4-dihydroquinolin-1 (2H)-yl)-1-oxo-3-phenylpropan-2-yl)carbamoyl)-2-methylbenzenesulfonamide] | 0.1 to 1 µM |  |
| CC(=O)Nc1ccc(C[C@H](NC(=O)NS(=O)(=O)c2ccccc2C)C(=O)N(C)c2ccc3c(c2)OCO3)cc1 [Example 73, (S)-3-(4-acetamidophenyl)-N-(benzo[d][1,3]dioxol-5-yl)-N-methyl-2-(3-(o-tolylsulfonyl)ureido)propanamide] |  | > 100 µM |
| Cc1ccccc1S(=O)(=O)NC(=O)N[C@@H](Cc1ccccc1)C(=O)N(C)c1ccc2ncsc2c1 [Example CA-95, (S)—N-(benzo[d]thiazol-6-yl)-N-methyl-3-phenyl-2-(3-(o-tolylsulfonyl)ureido)propanamide] | < 0.1 µM |  |
| CCN(C(=O)[C@H](Cc1ccccc1)NC(=O)NS(=O)(=O)c1ccccc1C)c1ccc(OC(F)(F)F)cc1 [Example 178, (S)—N-ethyl-3-phenyl-2-(3-(o-tolylsulfonyl)ureido)-N-(4-(trifluoromethoxy)phenyl)propanamide] | < 0.1 µM | 0.08 µM |
| COc1cccc(N(C)C(=O)[C@H](Cc2ccccc2)NC(=O)NS(=O)(=O)c2ccccc2)c1 [Example 89] | 0.1 to 1 µM |  |
| CCN(C(=O)[C@H](Cc1ccccc1)NC(=O)NS(=O)(=O)c1cc(-c2ccoc2)ccc1C)c1ccc(OC)cc1 [Example 123, (S)—N-ethyl-2-(3-((5-(furan-3-yl)-2-methylphenyl)sulfonyl)ureido)-N-(4-methoxyphenyl)-3-phenylpropanamide] | 0.1 to 1 µM | 0.66 µM |
| CN(C(=O)[C@H](Cc1cc(F)cc(F)c1)NC(=O)NS(=O)(=O)c1ccccc1F)c1ccc2c(c1)OC(F)(F)O2 [Example 35, (S)—N-(2,2-difluorobenzo[d][1,3]dioxol-5-yl)-3-(3,5-difluorophenyl)-2-(3-((2-fluorophenyl)sulfonyl)ureido)-N-methylpropanamide] | 0.1 to 1 µM |  |
| COc1ccc(S(=O)(=O)NC(=O)N[C@@H](Cc2ccccc2)C(=O)N(C)c2ccc3c(c2)OCO3)cc1 [Example 8, (S)—N-(benzo[d][1,3]dioxol-5-yl)-2-(3-((4-methoxyphenyl)sulfonyl)ureido)-N-methyl-3-phenylpropanamide] | 0.1 to 1 µM | 0.18 µM |
| COc1ccccc1N(C)C(=O)[C@H](Cc1ccccc1)NC(=O)NS(=O)(=O)c1ccccc1 [Example 95, (S)—N-(2-methoxyphenyl)-N-methyl-3-phenyl-2-(3 (phenylsulfonyl)ureido)-propanamide] | 1 to 10 µM |  |
| CCN(C(=O)[C@H](Cc1ccccc1)NC(=O)NS(=O)(=O)c1ccccc1C)c1ccc(OC)cc1 [Example 184, (S)—N-ethyl-N-(4-methoxyphenyl)-3-phenyl-2-(3-(o-tolylsulfonyl)ureido)propanamide] | < 0.1 µM |  |

| SMILES | EC50 [1] | EC50 [2] |
| --- | --- | --- |
| Cc1ccccc1S(=O)(=O)NC(=O)N[C@@H](Cc1ccc(Cl)cc1)C(=O)N(C)c1ccc2c(c1)OCO2 [Example 51, (S)—N-(benzo[d][1,3]dioxol-5-yl)-3-(4-chlorophenyl)-N-methyl-2-(3-(o-tolylsulfonyl)ureido)propanamide] | 0.1 to 1 µM | 0.49 µM |
| Cc1ccccc1S(=O)(=O)NC(=O)N[C@@H](Cc1ccccc1)C(=O)N(C)c1ccc2c(c1)CCCO2 [Example CA-79, (S)—N-(chroman-6-yl)-N-methyl-3-phenyl-2-(3-(o-tolylsulfonyl)ureido)propanamide] | < 0.1 µM |  |
| Cc1ccccc1S(=O)(=O)NC(=O)N[C@@H](Cc1ccccc1)C(=O)N1CCC1 [Example 188, (S)—N-((1-(azetidin-1-yl)-1-oxo-3-phenylpropan-2-yl)carbamoyl)-2-methylbenzenesulfonamide] | 10 to 100 µM | 27.5 µM |
| CN(C(=O)[C@H](Cc1ccccc1)NC(=O)NS(=O)(=O)c1ccccc1-c1ccc(CO)cc1)c1ccc2c(c1)OCO2 [Example 124, (S)—N-(benzo[d][1,3]dioxol-5-yl)-2-(3-((4′-(hydroxymethyl)-[1,1′-biphenyl]-2-yl)sulfonyl)ureido)-N-methyl-3-phenylpropanamide] | 1 to 10 µM |  |
| Cc1ccccc1S(=O)(=O)NC(=O)N[C@@H](Cc1ccccc1)C(=O)N(C)c1cccc2[nH]cnc12 [Example CA-101, (S)—N-(1H-benzo[d]imidazol-4-yl)-N-methyl-3-phenyl-2-(3-(o-tolylsulfonyl)ureido)propanamide] | 1 to 10 µM |  |
| Cc1ccccc1S(=O)(=O)NC(=O)N[C@H](CCc1ccccc1)C(=O)N(C)c1ccc2c(c1)OCO2 [Example 210, (R)—N-(benzo[d][1,3]dioxol-5-yl)-N-methyl-4-phenyl-2-(3-(o-tolylsulfonyl)ureido)butanamide] | 10 to 100 µM |  |
| CN(C(=O)[C@H](Cc1ccccc1)NC(=O)NS(=O)(=O)Cc1cccc(Cl)c1)c1ccc2c(c1)OCO2 [Example 103, (S)—N-(benzo[d][1,3]dioxol-5-yl)-2-(3-((3-chlorobenzyl)sulfonyl)ureido)-N-methyl-3-phenylpropanamide] | 0.1 to 1 µM |  |
| CCN(C(=O)[C@H](Cc1ccccc1)NC(=O)NS(=O)(=O)c1cccc(-c2ccsc2)c1C)c1ccc(OC)cc1 [Example 157, (S)—N-ethyl-N-(4-methoxyphenyl)-2-(3-((2-methyl-3-(thiophen-3-yl)phenyl)sulfonyl)ureido)-3-phenylpropanamide] | 0.1 to 1 µM |  |
| CCN(C(=O)[C@H](Cc1ccccc1)NC(=O)NS(=O)(=O)c1ccccc1C)c1ccc(C)c(C)c1 [Example 175, (S)—N-(3,4-dimethylphenyl)-N-ethyl-3-phenyl-2-(3-(o-tolylsulfonyl)ureido)propanamide] | < 0.1 µM |  |
| CN(C(=O)[C@H](Cc1ccccc1)NC(=O)NS(=O)(=O)C1CC1)c1ccc2c(c1)OCO2 [Example 42, (S)—N-(benzo[d][1,3]dioxol-5-yl)-2-(3-(cyclopropylsulfonyl)ureido)-N-methyl-3-phenylpropanamide] | 0.1 to 1 µM | 0.48 µM |
| Cc1nc2cc(N(C)C(=O)[C@H](Cc3ccccc3)NC(=O)NS(=O)(=O)c3ccccc3C)ccc2s1 [Example CA-87, (S)—N-methyl-N-(2-methylbenzo[d]thiazol-5-yl)-3-phenyl-2-(3-(o-tolylsulfonyl)ureido)propanamide] | 0.1 to 1 µM |  |
| CCN(C(=O)[C@H](Cc1ccccc1)NC(=O)NS(=O)(=O)c1ccccc1C)c1ccccc1 [Example CA-68, (S)—N-ethyl-N, 3-diphenyl-2-(3-(o-tolylsulfonyl)ureido)propanamide] | 0.1 to 1 µM |  |
| Cc1c(Cl)cccc1S(=O)(=O)NC(=O)N[C@@H](Cc1ccccc1)C(=O)N(C)c1ccc2c(c1)OCO2 [Example 28, (S)—N-(benzo[d][1,3]dioxol-5-yl)-2-(3-((3-chloro-2-methylphenyl)sulfonyl)ureido)-N-methyl-3-phenylpropanamide] | < 0.1 µM |  |
| CN(C(=O)[C@H](Cc1ccccc1)NC(=O)NS(=O)(=O)c1ccccc1-c1cncnc1)c1ccc2c(c1)OCO2 [Example 127, (S)—N-(benzo[d][1,3]dioxol-5-yl)-N-methyl-3-phenyl-2-(3-((2-(pyrimidin-5-yl)phenyl)sulfonyl)ureido)propanamide] | 10 to 100 µM | 21.7 µM |
| Cc1ccccc1S(=O)(=O)NC(=O)N[C@@H](Cc1cc(F)cc(F)c1)C(=O)N(C)c1ccc2c(c1)OC(F)(F)O2 [Example 40, (S)—N-(2,2-difluorobenzo[d][1,3]dioxol-5-yl)-3-(3,5-difluorophenyl)-N-methyl-2-(3-(o-tolylsulfonyl)ureido)propanamide] | 0.1 to 1 µM |  |
| CCN(C(=O)[C@H](Cc1ccccc1)NC(=O)NS(=O)(=O)c1cccc2ccccc12)c1ccc(OC)cc1 [Example 116, (S)—N-ethyl-N-(4-methoxyphenyl)-2-(3-(naphthalen-1-ylsulfonyl)ureido)-3-phenylpropanamide] | < 0.1 µM |  |
